Experimental findings from US9505769B2 (ASCENEURON SA, priority 2013, dated 2016) are described below.

Structures are written as SMILES. Structures can show the parent of a compound that is named as a salt. A value given as a limit tells only on which side of the number the result lay.

Usually EC50 stands for the midpoint of the concentration-response curve.

The first test deals with T1, human muscarinic acetylcholine M1 receptor (Homo sapiens, UniProt P11229).
T1 construct: expressed in transfected cells; host or cells: CHO-K1
T1 sequence (P11229 1-460): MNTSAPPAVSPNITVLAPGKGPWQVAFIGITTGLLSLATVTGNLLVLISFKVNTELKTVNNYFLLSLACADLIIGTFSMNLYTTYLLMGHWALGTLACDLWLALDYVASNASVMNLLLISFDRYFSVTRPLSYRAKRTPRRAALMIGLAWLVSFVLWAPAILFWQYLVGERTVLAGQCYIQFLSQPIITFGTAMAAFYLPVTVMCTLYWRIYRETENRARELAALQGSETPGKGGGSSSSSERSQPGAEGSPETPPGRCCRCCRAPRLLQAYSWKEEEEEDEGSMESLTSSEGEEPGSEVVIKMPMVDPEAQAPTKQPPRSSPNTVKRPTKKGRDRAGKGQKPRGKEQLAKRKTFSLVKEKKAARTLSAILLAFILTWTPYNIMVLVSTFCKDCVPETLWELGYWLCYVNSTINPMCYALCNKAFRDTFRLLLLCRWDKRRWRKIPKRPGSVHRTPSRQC
In words: M1 PAM Assay (IP-One HTRF, IP1 accumulation in M1-CHO cells). The class given is cell-based.
Settings: not given
The method, then: Then diluted compounds (0.6% DMSO final concentration) are added together with EC20 of acetylcholine and incubated with the cells for 30 min at 37° C., 5% CO2.
CHO-K1 cells stably transfected with human muscarinic acetylcholine M1 receptor are cultured in Ham's F12 medium containing 10% heat inactivated fetal calf serum, 2 mM L-glutamine and Penicillin-Streptomycin grown in a humidified atmosphere at 5% CO2/95% air at 37° C.
(In TR-FRET formats the signal depends on donor and acceptor labels being close together.)
For `Cc1nc2c3c(nn2c(C)c1Cl)CN(C(=O)c1ccc(F)cc1O[C@H]1C[C@H]2CCC[C@@H](C1)N2C)C3` [Example 58, (3-chloro-2,4-dimethyl-7H-pyrrolo[3′,4′:3,4]pyrazolo[1,5-a]pyrimidin-8(9H)-yl)(4-fluoro-2-{[(3-endo)-9-methyl-9-azabicyclo[3.2.1]nonan-3-yl]oxy}phenyl)methanone], the EC50 lay within 0.2 to 1 µM.
As for `O=C(c1ccc(F)cc1O[C@H]1C[C@H]2CC[C@@H](C1)N2CC1CC1)N1Cc2nn3cc(Cl)cnc3c2C1` [Example 59, (3-chloro-7H-pyrrolo[3′,4′:3,4]pyrazolo[1,5-a]pyrimidin-8(9H)-yl)(2-{[(3-endo)-8-(cyclopropylmethyl)-8-azabicyclo[3.2.1]oct-3-yl]oxy}-4-fluorophenyl)methanone], the EC50 was below 0.2 µM.

The same test, now with this note: CHO-K1 cells stably transfected with human M1 receptor; compounds added with EC20 of acetylcholine (25 nM), 30 min; intracellular IP1 by IP-One HTRF; read-out: M1 PAM EC50.
Regarding `CCOC(=O)N1CCC(Oc2cc(F)ccc2C(=O)N2Cc3nn4c(C)c(Cl)c(C)nc4c3C2)CC1` [Example 28, 4-[2-(6-Chloro-5,7-dimethyl-1H,3H-2,4,7a,8-tetraaza-cyclopenta[a]indene-2-carbonynl)-5-fluoro-phenoxy]-piperidine-1-carboxylic acid ethyl ester], the EC50 lay within 1 to 3 µM.
With `Cc1nc2c3c(nn2c(C)c1Cl)CN(C(=O)c1ccc(F)cc1OC1CCN(CC(O)C(F)(F)F)CC1)C3` (stereo not shown) [Example 75, (6-Chloro-5,7-dimethyl-1H,3H-2,4,7a,8-tetraaza-cyclopenta[a]inden-2-yl)-{4-fluoro-2-[1-(3,3,3-trifluoro-2-hydroxy-propyl)-piperidin-4-yloxy]-phenyl}-methanone], the EC50 was 0.2 to 1 µM.
On the same count and under the same terms, to `Cc1nc2c3c(nn2c(C)c1Cl)C(CO)N(C(=O)c1ccccc1OC1CCN(C)CC1)C3` (stereo not shown) [Example 23, (6-Chloro-1-hydroxymethyl-5,7-dimethyl-1H,3H-2,4,7a,8-tetraaza-cyclopenta[a]inden-2yl)-[2-(1-methyl-piperidin-4-yloxy)-phenyl]-methanone] belongs 1 to 3 µM; to `Cc1nc2c3c(nn2c(C)c1Cl)CN(C(=O)c1ccc(F)cc1O[C@H]1COC[C@@H]1O)C3` (racemic) [Example 26, (anti)-(3-chloro-2,4-dimethyl-7H-pyrrolo[3′,4′:3,4]pyrazolo[1,5-a]pyrimidin-8(9H)-yl)(4-fluoro-2-((4-hydroxytetrahydrofuran-3-yl)oxy)phenyl)methanone], 1 to 3 µM; to `Cc1nc2c3c(nn2c(C)c1Cl)CN(C(=O)c1ccc(F)cc1OC1CCN(CCO)CC1)C3` [Example 32, (6-Chloro-5,7-dimethyl-1H,3H-2,4,7a,8-tetraaza-cyclopenta[a]inden-2-yl)-{4-fluoro-2-[1-(2-hydroxy-ethyl)-piperidin-4-yloxy]-phenyl}-methanone], below 0.2 µM.
`Cc1nc2c3c(nn2c(C)c1Cl)CN(C(=O)c1ccc(F)cc1OCCN1CCCC1)C3` [Example 16, (3-Chloro-2,4-dimethyl-7H-pyrrolo[3′,4′:3,4]pyrazolo[1,5-a]pyrimidin-8(9H)-yl)(4-fluoro-2-(2-pyrrolidinoethoxy)phenyl)methanone]: the EC50 is below 0.2 µM.
In the case of `CCN1CCC(Oc2cc(F)ccc2C(=O)N2Cc3nn4c(C)c(Cl)c(C)nc4c3C2)CC1` [Example 76, (6-Chloro-5,7-dimethyl-1H,3H-2,4,7a,8-tetraaza-cyclopenta[a]inden-2-yl)-[2-(1-ethyl-piperidin-4-yloxy)-4-fluoro-phenyl]-methanone], the EC50 is below 0.2 µM.
On to `Cc1nc2c3c(nn2c(C)c1Cl)CN(C(=O)c1ccc(F)cc1O[C@@H]1CCNC1=O)C3` [Example 11, (R)-3-(2-(3-chloro-2,4-dimethyl-8,9-dihydro-7H-pyrrolo[3′,4′:3,4]pyrazolo[1,5-a]pyrimidine-8-carbonyl)-5-fluorophenoxy)pyrrolidin-2-one], for which the EC50 was 0.2 to 1 µM.
With `O=C(c1ccc(F)cc1OC1CCN(CCO)CC1)N1Cc2nn3cc(Cl)cnc3c2C1` [Example 35, (3-chloro-7H-pyrrolo[3′,4′:3,4]pyrazolo[1,5-a]pyrimidin-8(9H)-yl)(4-fluoro-2-((1-(2-hydroxyethyl)piperidin-4-yl)oxy)phenyl)methanone], the EC50 fell in the range of 0.2 to 1 µM.
Consider `Cc1nc2c3c(nn2c(C)c1Cl)CN(C(=O)c1ccc(F)cc1OC[C@H]1C[C@H](F)CN1)C3` [Example 55, (6-Chloro-5,7-dimethyl-1H,3H-2,4,7a,8-tetraaza-cyclopenta[a]inden-2-yl)-[4-fluoro-2-((2R,4S)-4-fluoro-pyrrolidin-2-ylmethoxy)-phenyl]-methanone], for which the EC50 lay in the range of 0.2 to 1 µM.
With `Cc1nc2c3c(nn2c(C)c1Cl)CN(C(=O)c1ccc(F)cc1O[C@H]1CC[C@H](O)CC1)C3` (single isomer, unassigned) [Example 41, (anti)-(6-Chloro-5,7-dimethyl-1H,3H-2,4,7a8-tetraaza-cyclopenta[a]inden-2-yl)-[4-fluoro-2-(4-hydroxy-cyclohexyloxy)-phenyl]-methanone], the EC50 is below 0.2 µM.
`Cc1nc2c3c(nn2c(C)c1Cl)CN(C(=O)c1ccccc1O[C@H]1CCNC[C@@H]1O)C3` (single isomer, unassigned) [Example 5]: the EC50 fell in the range of 0.2 to 1 µM.
Regarding `Cc1nc2c3c(nn2c(C)c1Cl)CN(C(=O)c1ccccc1C(C)N1CCNCC1)C3` (stereo not shown) [Example 6], the EC50 lay within 1 to 3 µM.
For the compound `Cc1nc2c3c(nn2c(C)c1Cl)CN(C(=O)c1ccc(F)cc1O[C@@H]1CCN[C@@H](C)C1)C3` (stereo in doubt) [Example 24, (3-chloro-2,4-dimethyl-7H-pyrrolo[3′,4′:3,4]pyrazolo[1,5-a]pyrimidin-8(9H)-yl)(4-fluoro-2-((2-methylpiperidin-4-yl)oxy)phenyl)methanone hydrochloride], the EC50 lay in the range of 0.2 to 1 µM.
